In the NIST ThermoML archive (doi:10.1016/j.jct.2015.03.017):

Assay: mn = molality of the nth substance listed, in mol/kg
Settings: 74.66 kPa, Liquid; for speed of sound: Frequency=3 MHz, Sing-around technique in a fixed-path interferometer; for mass density: Vibrating tube method

CC(C)C[N+](CC(C)C)(CC(C)C)CC(C)C.[Br-] [tetra-iso-butyl ammonium bromide] + O
Settings | mass density, 278.15 K [kg/m3] | mass density, 283.15 K [kg/m3] | mass density, 288.15 K [kg/m3] | mass density, 293.15 K [kg/m3] | speed of sound, 278.15 K [m/s] | speed of sound, 283.15 K [m/s] | speed of sound, 288.15 K [m/s] | speed of sound, 293.15 K [m/s] | speed of sound, 298.15 K [m/s]
m1 = 0.01022 | 1000.51 | 1000.24 | 999.634 | 998.735 | – | – | – | – | –
m1 = 0.02021 | 1001.05 | 1000.77 | 1000.16 | 999.258 | 1434 | 1454.4 | 1472.5 | 1488.5 | 1502.6
m1 = 0.02983 | 1001.57 | 1001.29 | 1000.67 | 999.758 | 1437 | 1457 | 1475 | 1490.5 | 1503.3
m1 = 0.03847 | 1002.04 | 1001.75 | 1001.12 | 1000.21 | 1438.5 | 1458.5 | 1476.2 | 1491.8 | 1505.5
m1 = 0.04829 | 1002.57 | 1002.27 | 1001.63 | 1000.71 | 1441.3 | 1461.2 | 1478.9 | 1494.5 | 1508.1
m1 = 0.05621 | 1002.99 | 1002.68 | 1002.04 | 1001.11 | 1443.4 | 1463.6 | 1480.5 | 1495.7 | 1509.7
m1 = 0.06888 | 1003.67 | 1003.34 | 1002.7 | 1001.76 | 1447 | 1466.5 | 1483.8 | 1498.9 | 1512.2
m1 = 0.07666 | 1004.08 | 1003.76 | 1003.1 | 1002.16 | 1448.2 | 1467.5 | 1484.6 | 1499.7 | 1512.9
m1 = 0.08623 | 1004.6 | 1004.26 | 1003.6 | 1002.64 | 1451.5 | 1469.4 | 1486.2 | 1500.9 | 1513.8
m1 = 0.1002 | 1005.35 | 1005 | 1004.33 | 1003.37 | 1453.7 | 1472.5 | 1489.2 | 1503.9 | 1516.7
